Assay results: patent US12344603B2 (Genentech, Inc., priority 2020, dated 2025)
Where a name gives a salt, the structure may show the parent alone.

Target: IRE1α (Homo sapiens (Human), UniProt O75460, D688N)
Assay: IRE1α TR-FRET competition binding assay (IRE1α HTRF)
Conditions: TR-FRET competition binding to kinase domain of IRE1α
In short: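 Competition of compounds against an Alexa fluor 647 ATP-site probe (2 nM final) for the His-tagged kinase domain (0.25 nM final), detected via 2 nM Eu anti-His antibody by TR-FRET, 665 and 615 nm emission. Protein–antibody premix 1 h, 4° C; reaction 1 h, room temperature, pH 7.5 HEPES buffer.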

Sequence of IRE1α (O75460 547-977 D688N): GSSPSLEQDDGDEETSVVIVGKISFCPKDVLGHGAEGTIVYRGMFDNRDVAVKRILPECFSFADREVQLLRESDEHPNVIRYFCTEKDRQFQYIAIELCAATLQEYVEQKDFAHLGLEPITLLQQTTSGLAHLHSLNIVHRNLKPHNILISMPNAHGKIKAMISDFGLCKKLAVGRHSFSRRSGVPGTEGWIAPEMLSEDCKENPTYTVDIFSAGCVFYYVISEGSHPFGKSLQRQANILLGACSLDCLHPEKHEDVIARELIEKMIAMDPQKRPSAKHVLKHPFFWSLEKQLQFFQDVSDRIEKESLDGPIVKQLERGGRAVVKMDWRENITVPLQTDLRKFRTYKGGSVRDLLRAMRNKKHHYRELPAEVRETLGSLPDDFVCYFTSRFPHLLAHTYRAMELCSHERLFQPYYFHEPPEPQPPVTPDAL

| Compound | IC50 [nM] |
| --- | --- |
| CC(C)n1c(=O)c(-c2cc(F)c(NS(=O)(=O)Cc3ccccc3F)c(F)c2F)cc2cnc(N[C@@H]3CNC[C@@H](F)C3)nc21 [Compound 86, 1-(2-Fluorophenyl)-N-(2,3,6-trifluoro-4-(2-(((3S,5S)-5-fluoropiperidin-3-yl)amino)-8-isopropyl-7-oxo-7,8-dihydropyrido[2,3-d]pyrimidin-6-yl)phenyl)methanesulfonamide] | 0.16 |
| CC(C)n1c(=O)c(-c2cc(F)c(NS(=O)(=O)Cc3ccccc3F)c(F)c2F)cc2cnc(N[C@H]3CNC[C@@H](O)C3)nc21 [Compound 88, 1-(2-Fluorophenyl)-N-(2,3,6-trifluoro-4-(2-(((3R,5S)-5-hydroxypiperidin-3-yl)amino)-8-isopropyl-7-oxo-7,8-dihydropyrido[2,3-d]pyrimidin-6-yl)phenyl)methanesulfonamide] | 8.5 |
| CC(C)n1c(=O)c(-c2cc(F)c(NS(=O)(=O)Cc3ccccc3F)c(F)c2F)cc2cnc(N[C@@H]3CNC[C@H](O)C3)nc21 [Compound 89, 1-(2-fluorophenyl)-N-(2,3,6-trifluoro-4-(2-(((3S,5R)-5-hydroxypiperidin-3-yl)amino)-8-isopropyl-7-oxo-7,8-dihydropyrido[2,3-d]pyrimidin-6-yl)phenyl)methanesulfonamide] | 0.34 |
| CC(C)n1c(=O)c(-c2ccc(NS(=O)(=O)Cc3ccccc3F)c(F)c2)cc2cnc(N[C@@H]3CNC[C@@H](F)C3)nc21 [Compound 90, N-(2-Fluoro-4-(2-(((3S,5S)-5-fluoropiperidin-3-yl)amino)-8-isopropyl-7-oxo-7,8-dihydropyrido[2,3-d]pyrimidin-6-yl)phenyl)-1-(2-fluorophenyl)methanesulfonamide] | 0.21 |
| CC(C)n1c(=O)c(-c2ccc(NS(=O)(=O)CCC(F)(F)F)c(F)c2)cc2cnc(N[C@H]3CC[C@H](N(C)C)CC3)nc21 [Compound 91, N-(4-(2-(((1r,4r)-4-(Dimethylamino)cyclohexyl)amino)-8-isopropyl-7-oxo-7,8-dihydropyrido[2,3-d]pyrimidin-6-yl)-2-fluorophenyl)-3,3,3-trifluoropropane-1-sulfonamide] | 0.13 |
| CC(C)n1c(=O)c(-c2ccc(NS(=O)(=O)CCC(F)(F)F)c(F)c2)cc2cnc(N[C@@H]3CNC[C@@H](F)C3)nc21 [Compound 92, 3,3,3-Trifluoro-N-(2-fluoro-4-(2-(((3S,5S)-5-fluoropiperidin-3-yl)amino)-8-isopropyl-7-oxo-7,8-dihydropyrido[2,3-d]pyrimidin-6-yl)phenyl)propane-1-sulfonamide] | 0.3 |
| CC(C)n1c(=O)c(-c2ccc(NS(=O)(=O)Cc3ccccc3F)nc2)cc2cnc(N[C@@H]3CNC[C@@H](F)C3)nc21 [Compound 93, 1-(2-Fluorophenyl)-N-(5-(2-(((3S,5S)-5-fluoropiperidin-3-yl)amino)-8-isopropyl-7-oxo-7,8-dihydropyrido[2,3-d]pyrimidin-6-yl)pyridin-2-yl)methanesulfonamide] | 0.24 |
| CC(C)n1c(=O)c(-c2ccc(NS(=O)(=O)Cc3ccccc3F)cn2)cc2cnc(N[C@H]3CC[C@H](N(C)C)CC3)nc21 [Compound 94, N-(6-(2-(((1r,4r)-4-(Dimethylamino)cyclohexyl)amino)-8-isopropyl-7-oxo-7,8-dihydropyrido[2,3-d]pyrimidin-6-yl)pyridin-3-yl)-1-(2-fluorophenyl)methanesulfonamide] | 0.27 |
| CC(C)n1c(=O)c(-c2ccc(NS(=O)(=O)Cc3ccccc3F)cn2)cc2cnc(N[C@@H]3CNC[C@@H](F)C3)nc21 [Compound 95, 1-(2-Fluorophenyl)-N-(6-(2-(((3S,5S)-5-fluoropiperidin-3-yl)amino)-8-isopropyl-7-oxo-7,8-dihydropyrido[2,3-d]pyrimidin-6-yl)pyridin-3-yl)methanesulfonamide] | 0.46 |
| CC(C)n1c(=O)c(-c2cc(F)c(NC(=O)[C@@H]3C[C@@H]3F)c(F)c2F)cc2cnc(N[C@H]3CC[C@H](N(C)C)CC3)nc21 [Compound 96, (1S,2S)—N-(4-(2-(((r,4r)-4-(dimethylamino)cyclohexyl)amino)-8-isopropyl-7-oxo-7,8-dihydropyrido[2,3-d]pyrimidin-6-yl)-2,3,6-trifluorophenyl)-2-fluorocyclopropane-1-carboxamide] | 1.6 |
| COc1ccc(Cl)cc1CS(=O)(=O)Nc1c(F)cc(-c2cc3cnc(N[C@@H]4CNC[C@@H](F)C4)nc3n(C(C)C)c2=O)c(F)c1F [Compound 97, 1-(5-Chloro-2-methoxyphenyl)-N-(2,3,6-trifluoro-4-(2-(((3S,5S)-5-fluoropiperidin-3-yl)amino)-8-isopropyl-7-oxo-7,8-dihydropyrido[2,3-d]pyrimidin-6-yl)phenyl)methanesulfonamide hydrochloride] | 0.27 |
| CC(C)n1c(=O)c(-c2cc(F)c(NCC(O)C(F)(F)F)c(F)c2F)cc2cnc(N[C@H]3CC[C@H](N(C)C)CC3)nc21 (stereo partly drawn) [Compound 99, 2-(((1r,4r)-4-(Dimethylamino)cyclohexyl)amino)-8-isopropyl-6-(2,3,5-trifluoro-4-((3,3,3-trifluoro-2-hydroxypropyl)amino)phenyl)pyrido[2,3-d]pyrimidin-7(8H)-one] | 46 |
| CC(C)n1c(=O)c(-c2cc(F)c(NCC(O)C(F)(F)F)c(F)c2F)cc2cnc(N[C@H]3CC[C@H](N(C)C)CC3)nc21 (stereo partly drawn) [Compound 99A, 2-(((1r,4r)-4-(Dimethylamino)cyclohexyl)amino)-8-isopropyl-6-(2,3,5-trifluoro-4-((3,3,3-trifluoro-2-hydroxypropyl)amino)phenyl)pyrido[2,3-d]pyrimidin-7(8H)-one] | 68 |
| CC(C)n1c(=O)c(-c2ccc(NS(=O)(=O)CCC(F)(F)F)c(F)c2)cc2cnc(N[C@H]3CCC[C@H](N)C3)nc21 [Compound 103, N-(4-(2-(((1S,3S)-3-Aminocyclohexyl)amino)-8-isopropyl-7-oxo-7,8-dihydropyrido[2,3-d]pyrimidin-6-yl)-2-fluorophenyl)-3,3,3-trifluoropropane-1-sulfonamide] | 26 |
| CC(C)n1c(=O)c(-c2ccc(NS(=O)(=O)CCC(F)(F)F)c(F)c2)cc2cnc(N[C@H]3CCC[C@H](N(C)C)C3)nc21 [Compound 104, hydrochloride] | 72 |
| CC(C)n1c(=O)c(-c2ccc(NS(=O)(=O)c3ccccc3Cl)nc2)cc2cnc(N[C@H]3CC[C@H](N(C)C)CC3)nc21 [Compound 105, 2-Chloro-N-(5-(2-(((1r,4r)-4-(dimethylamino)cyclohexyl)amino)-8-isopropyl-7-oxo-7,8-dihydropyrido[2,3-d]pyrimidin-6-yl)pyridin-2-yl)benzenesulfonamide] | 0.16 |
| CC(C)n1c(=O)c(-c2ccc(NS(=O)(=O)c3ccccc3)nc2)cc2cnc(N[C@H]3CC[C@H](N(C)C)CC3)nc21 [Compound 106, N-(5-(2-(((1r,4r)-4-(Dimethylamino)cyclohexyl)amino)-8-isopropyl-7-oxo-7,8-dihydropyrido[2,3-d]pyrimidin-6-yl)pyridin-2-yl)benzenesulfonamide] | 0.15 |
| Cc1ccc(CS(=O)(=O)Nc2c(F)cc(-c3cc4cnc(N[C@@H]5CNC[C@@H](F)C5)nc4n(C(C)C)c3=O)c(F)c2F)c(C#N)c1 [Compound 107, 1-(2-Cyano-4-methylphenyl)-N-(2,3,6-trifluoro-4-(2-(((3S,5S)-5-fluoropiperidin-3-yl)amino)-8-isopropyl-7-oxo-7,8-dihydropyrido[2,3-d]pyrimidin-6-yl)phenyl)methanesulfonamide] | 0.13 |
| CC(C)n1c(=O)c(-c2ccc(NS(=O)(=O)CCC(F)(F)F)c(F)c2)cc2cnc(N[C@H]3CCC[C@@H](N)C3)nc21 [Compound 108, N-(4-(2-(((1S,3R)-3-Aminocyclohexyl)amino)-8-isopropyl-7-oxo-7,8-dihydropyrido[2,3-d]pyrimidin-6-yl)-2-fluorophenyl)-3,3,3-trifluoropropane-1-sulfonamide hydrochloride] | 23 |
| CC(C)n1c(=O)c(-c2ccc(NS(=O)(=O)CC3CCCC3)c(F)c2)cc2cnc(N[C@H]3CC[C@H](N(C)C)CC3)nc21 [Compound 109, 1-Cyclopentyl-N-(4-(2-(((1r,4r)-4-(dimethylamino)cyclohexyl)amino)-8-isopropyl-7-oxo-7,8-dihydropyrido[2,3-d]pyrimidin-6-yl)-2-fluorophenyl)methanesulfonamide] | 0.13 |
| CC(C)n1c(=O)c(-c2ccc(NS(=O)(=O)Cc3ccc(F)cc3)c(F)c2)cc2cnc(N[C@@H]3CNC[C@@H](F)C3)nc21 [Compound 112, N-(2-Fluoro-4-(2-(((3S,5S)-5-fluoropiperidin-3-yl)amino)-8-isopropyl-7-oxo-7,8-dihydropyrido[2,3-d]pyrimidin-6-yl)phenyl)-1-(4-fluorophenyl)methanesulfonamide hydrochloride] | 0.13 |
| Cc1ccc(CS(=O)(=O)Nc2c(F)cc(-c3cc4cnc(N[C@H]5CC[C@H](N(C)C)CC5)nc4n(C(C)C)c3=O)c(F)c2F)c(C#N)c1 [Compound 113, 1-(2-Cyano-4-methylphenyl)-N-(4-(2-(((1r,4r)-4-(dimethylamino)cyclohexyl)amino)-8-isopropyl-7-oxo-7,8-dihydropyrido[2,3-d]pyrimidin-6-yl)-2,3,6-trifluorophenyl)methanesulfonamide] | 0.22 |
| CC(C)n1c(=O)c(-c2ccc(NS(=O)(=O)CCC(F)(F)F)c(F)c2)cc2cnc(N[C@H]3CCC[C@@H](N(C)C)C3)nc21 [Compound 114, N-(4-(2-(((1S,3R)-3-(Dimethylamino)cyclohexyl)amino)-8-isopropyl-7-oxo-7,8-dihydropyrido[2,3-d]pyrimidin-6-yl)-2-fluorophenyl)-3,3,3-trifluoropropane-1-sulfonamide] | 180 |
| CC(C)n1c(=O)c(-c2ccc(NS(=O)(=O)CC3CCCCC3)c(F)c2)cc2cnc(N[C@H]3CC[C@H](N(C)C)CC3)nc21 [Compound 115, 1-Cyclohexyl-N-(4-(2-(((1r,4r)-4-(dimethylamino)cyclohexyl)amino)-8-isopropyl-7-oxo-7,8-dihydropyrido[2,3-d]pyrimidin-6-yl)-2-fluorophenyl)methanesulfonamide] | 0.15 |
